From article PMC10501326, “A Phase I Study of the Pan-Notch Inhibitor CB-103 for Patients with Advanced Adenoid Cystic Carcinoma and Other Tumors” (Cancer Research Communications, 2023)
Values joined by “and” are separate entries in the source; they are usually repeats but may differ in a detail not shown here. Equal values may be shown once. Read-outs that look alike come from different tables or passages of the source.

Assay: Plasma pharmacokinetics (LC/MS-MS)
Type: in vivo, human
Settings: for half-life: SD, read-out: Plasma elimination half-life (t1/2) (converted)
Procedure: Plasma pharmacokinetics were assessed for CB-103 via blood samples taken on days 1 (predose, 0.5, 1, 2, 4, 6, 8 hours postdose ± 5 minutes, and 12 hours postdose ± 15 minutes), 2 (24-hour post-day 1, predose), 3 (predose), 8 (predose, 0.5, 1, 2, 4, 6, and 8 hour postdose ± 5 minutes), 9 (24-hour post-day 8, predose), 15, and 22 (predose, and 1 hour postdose) in cycle 1. In cycle 2, on day 1 (predose, 0.5, 1, 2, 6, and, 8 hours postdose ± 5 minutes) and 15 (predose); in cycles 3–6 once at each visit (predose or postdose). For a twice daily dose schedule, pharmacokinetic timepoints were adjusted to evaluate concentration-versus-time curves after morning and evening doses on days 1 and 8.
CB-103 concentrations were determined by validated high-performance LC/MS-MS method and analyzed descriptively using Phoenix WinNonlin v6.3 (Pharsight Corporation). Data at timepoints collected were used to generate a population pharmacokinetic model to estimate AUC and Cmax to associate with safety and efficacy.

CC(C)(C)c1ccc(Oc2ccc(N)cn2)cc1 [CB-103]
AUC (human, plasma, oral, 13 mg, Cohort 1 (13 mg), Cycle 1, Day 1, read-out: Mean AUC24): 174 ng·h/mL
Cmax (human, plasma, oral, 13 mg, Cohort 1 (13 mg), Cycle 1, Day 1, read-out: Mean Cmax): 44.4 ng/mL
AUC (human, plasma, oral, 13 mg, Cohort 1 (13 mg), Cycle 1, Day 8, read-out: Mean AUC24): 433 ng·h/mL
Cmax (human, plasma, oral, 13 mg, Cohort 1 (13 mg), Cycle 1, Day 8, read-out: Mean Cmax): 58.7 ng/mL
AUC (human, plasma, oral, 26 mg, Cohort 2 (26 mg), Cycle 1, Day 1, read-out: Mean AUC24): 220 ng·h/mL
Cmax (human, plasma, oral, 26 mg, Cohort 2 (26 mg), Cycle 1, Day 1, read-out: Mean Cmax): 53.7 ng/mL
AUC (human, plasma, oral, 52 mg, Cohort 3 (52 mg), Cycle 1, Day 1, read-out: Mean AUC24): 496 ng·h/mL
Cmax (human, plasma, oral, 52 mg, Cohort 3 (52 mg), Cycle 1, Day 1, read-out: Mean Cmax): 98.5 ng/mL
AUC (human, plasma, oral, 52 mg, Cohort 3 (52 mg), Cycle 1, Day 8, read-out: Mean AUC24): 999 ng·h/mL
Cmax (human, plasma, oral, 52 mg, Cohort 3 (52 mg), Cycle 1, Day 8, read-out: Mean Cmax): 154 ng/mL
AUC (human, plasma, oral, 104 mg, Cohort 4 (104 mg), Cycle 1, Day 1, read-out: Mean AUC24): 1440 ng·h/mL
Cmax (human, plasma, oral, 104 mg, Cohort 4 (104 mg), Cycle 1, Day 1, read-out: Mean Cmax): 368 ng/mL
AUC (human, plasma, oral, 104 mg, Cohort 4 (104 mg), Cycle 1, Day 8, read-out: Mean AUC24): 3690 ng·h/mL
Cmax (human, plasma, oral, 104 mg, Cohort 4 (104 mg), Cycle 1, Day 8, read-out: Mean Cmax): 418 ng/mL
AUC (human, plasma, oral, 148 mg, Cohort 5 (148 mg), Cycle 1, Day 1, read-out: Mean AUC24): 1260 ng·h/mL
Cmax (human, plasma, oral, 148 mg, Cohort 5 (148 mg), Cycle 1, Day 1, read-out: Mean Cmax): 482 ng/mL
AUC (human, plasma, oral, 148 mg, Cohort 5 (148 mg), Cycle 1, Day 8, read-out: Mean AUC24): 2830 ng·h/mL
Cmax (human, plasma, oral, 148 mg, Cohort 5 (148 mg), Cycle 1, Day 8, read-out: Mean Cmax): 427 ng/mL
AUC (human, plasma, oral, 217 mg, Cohort 6 (217 mg), Cycle 1, Day 1, read-out: Mean AUC24): 2620 ng·h/mL
Cmax (human, plasma, oral, 217 mg, Cohort 6 (217 mg), Cycle 1, Day 1, read-out: Mean Cmax): 731 ng/mL
AUC (human, plasma, oral, 217 mg, Cohort 6 (217 mg), Cycle 1, Day 8, read-out: Mean AUC24): 4250 ng·h/mL
Cmax (human, plasma, oral, 217 mg, Cohort 6 (217 mg), Cycle 1, Day 8, read-out: Mean Cmax): 912 ng/mL
AUC (human, plasma, oral, 250 mg, Cohort 9 (250 mg BID), Cycle 1, Day 1, read-out: Mean AUC24): 6140 ng·h/mL
Cmax (human, plasma, oral, 250 mg, Cohort 9 (250 mg BID), Cycle 1, Day 1, read-out: Mean Cmax): 1010 ng/mL
AUC (human, plasma, oral, 250 mg, Cohort 9 (250 mg BID), Cycle 1, Day 8, read-out: Mean AUC24): 11700 ng·h/mL
Cmax (human, plasma, oral, 250 mg, Cohort 9 (250 mg BID), Cycle 1, Day 8, read-out: Mean Cmax): 1310 ng/mL
AUC (human, plasma, oral, 300 mg, Cohort 10 (300 mg BID 5/2), Cycle 1, Day 1, read-out: Mean AUC24): 10400 ng·h/mL
Cmax (human, plasma, oral, 300 mg, Cohort 10 (300 mg BID 5/2), Cycle 1, Day 1, read-out: Mean Cmax): 1630 ng/mL
AUC (human, plasma, oral, 300 mg, Cohort 10 (300 mg BID 5/2), Cycle 1, Day 8, read-out: Mean AUC24): 11300 ng·h/mL
Cmax (human, plasma, oral, 300 mg, Cohort 10 (300 mg BID 5/2), Cycle 1, Day 8, read-out: Mean Cmax): 1390 ng/mL
AUC (human, plasma, oral, 348 mg, Cohort 7 (348 mg), Cycle 1, Day 1, read-out: Mean AUC24): 3520 ng·h/mL
Cmax (human, plasma, oral, 348 mg, Cohort 7 (348 mg), Cycle 1, Day 1, read-out: Mean Cmax): 1150 ng/mL
AUC (human, plasma, oral, 348 mg, Cohort 7 (348 mg), Cycle 1, Day 8, read-out: Mean AUC24): 6880 ng·h/mL
Cmax (human, plasma, oral, 348 mg, Cohort 7 (348 mg), Cycle 1, Day 8, read-out: Mean Cmax): 874 ng/mL
AUC (human, plasma, oral, 400 mg, Cohort 11 (400 mg BID 5/2), Cycle 1, Day 1, read-out: Mean AUC24): 14900 ng·h/mL
Cmax (human, plasma, oral, 400 mg, Cohort 11 (400 mg BID 5/2), Cycle 1, Day 1, read-out: Mean Cmax): 1620 ng/mL
AUC (human, plasma, oral, 400 mg, Cohort 11 (400 mg BID 5/2), Cycle 1, Day 8, read-out: Mean AUC24): 14100 ng·h/mL
Cmax (human, plasma, oral, 400 mg, Cohort 11 (400 mg BID 5/2), Cycle 1, Day 8, read-out: Mean Cmax): 2400 ng/mL
AUC (human, plasma, oral, 500 mg, Cohort 12 (500 mg BID 5/2), Cycle 1, Day 1, read-out: Mean AUC24): 14200 ng·h/mL
Cmax (human, plasma, oral, 500 mg, Cohort 12 (500 mg BID 5/2), Cycle 1, Day 1, read-out: Mean Cmax): 2390 ng/mL
AUC (human, plasma, oral, 500 mg, Cohort 12 (500 mg BID 5/2), Cycle 1, Day 8, read-out: Mean AUC24): 18600 ng·h/mL
Cmax (human, plasma, oral, 500 mg, Cohort 12 (500 mg BID 5/2), Cycle 1, Day 8, read-out: Mean Cmax): 2760 ng/mL
Cmax (human, plasma, oral, 500 mg, individual patients, total dose 500 mg, twice daily dosing, read-out: Cmax): 1230 ng/mL
AUC (human, plasma, oral, 522 mg, Cohort 8 (522 mg), Cycle 1, Day 1, read-out: Mean AUC24): 5910 ng·h/mL
Cmax (human, plasma, oral, 522 mg, Cohort 8 (522 mg), Cycle 1, Day 1, read-out: Mean Cmax): 1230 ng/mL
AUC (human, plasma, oral, 522 mg, Cohort 8 (522 mg), Cycle 1, Day 8, read-out: Mean AUC24): 13500 ng·h/mL
Cmax (human, plasma, oral, 522 mg, Cohort 8 (522 mg), Cycle 1, Day 8, read-out: Mean Cmax): 1740 ng/mL
Cmax (human, plasma, oral, 800 mg, individual patient, total dose 800 mg, twice daily dosing, read-out: Cmax): 1730 ng/mL
half-life (human, plasma, oral, cycle 1 day 1, 8.5): 16.5 h
Cmax (human, plasma, oral, cycle 1 day 1, entire sampled cohort, read-out: Mean Cmax): 731 ng/mL
half-life (human, plasma, oral, cycle 1 day 8, 42.6): 37.7 h
AUC (human, plasma, oral, entire sampled cohort, read-out: Mean AUC from 0 to 24): 3160 ng·h/mL
Tmax (human, plasma, oral, day 1 of cycle 1, dose-escalation cohorts 1 through 8, read-out: Peak (tmax)): 0.5 to 2 h
Cmax (individual patients, total dose 500 mg, twice daily dosing, read-out: Cmax): 1800 ng/mL
Cmax (individual patients, total dose 600 mg, twice daily dosing): 638 ng·h/mL and 2100 ng·h/mL and 1280 ng·h/mL and 1220 ng·h/mL and 1710 ng·h/mL
Cmax (individual patients, total dose 1000 mg, twice daily dosing): 4420 ng·h/mL and 2580 ng·h/mL and 3760 ng·h/mL and 2410 ng·h/mL and 1240 ng·h/mL
